From US20120141386A1, “Application of Antimicrobial and Glycemic Control Activities of Lo Han Kuo Fruit (Siraitia grosvenorii)” (ORACEUTICALS, INC., priority 2010, published 2012)
“Also recorded” adds a separate entry of the source. Read-outs that look alike come from different tables or passages of the source.

Columns and labels:
Type in all cases: cell-based
P. gingivalis = assay: Inhibition of growth of oral bacteria, P. gingivalis
Procedure: (§1) The concentration of 500 μM of mogroside II, III, IV, V, VI, 11-o-Mogroside V, and Siamenoside I, siraitiflavandiol, rhamnocitrin-3-O-rhamnoside, and kaempferitrin were used to test the inhibition activity against the growth of oral bacteria, A. actinomycetemcomitans and P. gingivalis.

A. actinomycetemcomitans = assay: Inhibition of growth of oral bacteria, A. actinomycetemcomitans; conditions: 500 μM
Procedure: as §1

C. albicans = assay: In vitro inhibition of growth of C. albicans
Procedure: Mogroside II, III, IV, V, VI, 11-o-Mogroside V, and Siamenoside I were also evaluated in vitro for inhibition of growth of C. albicans.

## C[C@H](CC[C@@H](O[C@@H]1O[C@H](CO[C@@H]2O[C@H](CO)[C@@H](O)[C@H](O)[C@H]2O)[C@@H](O)[C@H](O)[C@H]1O[C@@H]1O[C@H](CO)[C@@H](O)[C@H](O)[C@H]1O)C(C)(C)O)[C@H]1CC[C@@]2(C)[C@@H]3CC=C4[C@@H](CC[C@H](O[C@@H]5O[C@H](CO[C@@H]6O[C@H](CO)[C@@H](O)[C@H](O)[C@H]6O)[C@@H](O)[C@H](O)[C@H]5O)C4(C)C)[C@]3(C)C(=O)C[C@]12C [11-o-Mogroside V]
P. gingivalis; 500 μM
  antimicrobial activity against P. gingivalis (growth inhibition): higher antimicrobial activity than mogroside III
A. actinomycetemcomitans
  antimicrobial activity against A. actinomycetemcomitans (growth inhibition): higher antimicrobial activity than mogroside II and III
C. albicans; in vitro
  antimicrobial activity against C. albicans (growth inhibition): higher antimicrobial activity than mogroside VI and Siamenoside I

## C[C@H](CC[C@@H](O[C@@H]1O[C@H](CO[C@@H]2O[C@H](CO)[C@@H](O)[C@H](O)[C@H]2O)[C@@H](O)[C@H](O)[C@H]1O[C@@H]1O[C@H](CO)[C@@H](O)[C@H](O)[C@H]1O)C(C)(C)O)[C@H]1CC[C@@]2(C)[C@@H]3CC=C4[C@@H](CC[C@H](O[C@@H]5O[C@H](CO)[C@@H](O)[C@H](O)[C@H]5O)C4(C)C)[C@]3(C)[C@H](O)C[C@]12C [Siamenoside I]
C. albicans; in vitro
  antimicrobial activity against C. albicans (growth inhibition): mogroside II, III, IV, V, and 11-o-Mogroside V showed higher antimicrobial activity than mogroside VI and Siamenoside I

## C[C@@H]1O[C@@H](Oc2cc(O)c3c(=O)c(O[C@@H]4O[C@@H](C)[C@H](O)[C@@H](O)[C@H]4O)c(-c4ccc(O)cc4)oc3c2)[C@H](O)[C@H](O)[C@H]1O [kaempferitrin]
P. gingivalis; 500 μM
  antimicrobial activity against P. gingivalis (growth inhibition): highest activity
C. albicans; in vitro
  antimicrobial activity against C. albicans (growth inhibition): good activity

## C[C@H](CC[C@@H](O[C@@H]1O[C@H](CO[C@@H]2O[C@H](CO)[C@@H](O)[C@H](O)[C@H]2O)[C@@H](O)[C@H](O)[C@H]1O)C(C)(C)O)[C@H]1CC[C@@]2(C)[C@@H]3CC=C4[C@@H](CC[C@H](O[C@@H]5O[C@H](CO)[C@@H](O)[C@H](O)[C@H]5O)C4(C)C)[C@]3(C)[C@H](O)C[C@]12C [mogroside III]
P. gingivalis; 500 μM
  antimicrobial activity against P. gingivalis (growth inhibition): mogroside II, IV, V, VI, 11-o-Mogroside V showed higher antimicrobial activity than mogroside III
A. actinomycetemcomitans
  antimicrobial activity against A. actinomycetemcomitans (growth inhibition): mogroside IV, V, VI, 11-o-Mogroside V showed higher antimicrobial activity than mogroside II and III
C. albicans; in vitro
  antimicrobial activity against C. albicans (growth inhibition): higher antimicrobial activity than mogroside VI and Siamenoside I

## C[C@H](CC[C@@H](O[C@@H]1O[C@H](CO)[C@@H](O)[C@H](O)[C@H]1O[C@@H]1O[C@H](CO)[C@@H](O)[C@H](O)[C@H]1O)C(C)(C)O)[C@H]1CC[C@@]2(C)[C@H]3CC=C4[C@@H](CC[C@H](O[C@@H]5O[C@H](CO[C@@H]6O[C@H](CO)[C@@H](O)[C@H](O)[C@H]6O)[C@@H](O)[C@H](O)[C@H]5O)C4(C)C)[C@]3(C)[C@H](O)C[C@]12C [mogroside IV]
P. gingivalis; 500 μM
  antimicrobial activity against P. gingivalis (growth inhibition): higher antimicrobial activity than mogroside III
A. actinomycetemcomitans
  antimicrobial activity against A. actinomycetemcomitans (growth inhibition): higher antimicrobial activity than mogroside II and III
C. albicans; in vitro
  antimicrobial activity against C. albicans (growth inhibition): higher antimicrobial activity than mogroside VI and Siamenoside I

## C[C@H](CC[C@@H](O[C@@H]1O[C@H](CO[C@@H]2O[C@H](CO)[C@@H](O)[C@H](O)[C@H]2O)[C@@H](O)[C@H](O)[C@H]1O[C@@H]1O[C@H](CO)[C@@H](O)[C@H](O)[C@H]1O)C(C)(C)O)[C@H]1CC[C@@]2(C)[C@@H]3CC=C4[C@@H](CC[C@H](O[C@@H]5O[C@H](CO[C@@H]6O[C@H](CO)[C@@H](O)[C@H](O)[C@H]6O)[C@@H](O)[C@H](O)[C@H]5O)C4(C)C)[C@]3(C)[C@H](O)C[C@]12C [mogroside V, Mogroside V]
P. gingivalis; 500 μM
  antimicrobial activity against P. gingivalis (growth inhibition): higher antimicrobial activity than mogroside III
A. actinomycetemcomitans
  antimicrobial activity against A. actinomycetemcomitans (growth inhibition): higher antimicrobial activity than mogroside II and III; also recorded: highest activity
C. albicans; in vitro
  antimicrobial activity against C. albicans (growth inhibition): higher antimicrobial activity than mogroside VI and Siamenoside I

## C[C@H](CC[C@@H](O[C@@H]1O[C@H](CO[C@@H]2O[C@H](CO)[C@@H](O)[C@H](O)[C@H]2O)[C@@H](O)[C@H](O)[C@H]1O[C@@H]1O[C@H](CO)[C@@H](O)[C@H](O)[C@H]1O)C(C)(C)O)[C@H]1CC[C@@]2(C)[C@H]3CC=C4[C@H](CC[C@H](O[C@@H]5O[C@H](CO[C@@H]6O[C@H](CO)[C@@H](O)[C@H](O)[C@H]6O)[C@@H](O)[C@H](O)[C@H]5O[C@@H]5O[C@H](CO)[C@@H](O)[C@H](O)[C@H]5O)C4(C)C)[C@]3(C)[C@H](O)C[C@]12C [mogroside VI]
P. gingivalis; 500 μM
  antimicrobial activity against P. gingivalis (growth inhibition): higher antimicrobial activity than mogroside III
A. actinomycetemcomitans
  antimicrobial activity against A. actinomycetemcomitans (growth inhibition): higher antimicrobial activity than mogroside II and III
C. albicans; in vitro
  antimicrobial activity against C. albicans (growth inhibition): mogroside II, III, IV, V, and 11-o-Mogroside V showed higher antimicrobial activity than mogroside VI and Siamenoside I

## mogroside II
P. gingivalis; 500 μM
  antimicrobial activity against P. gingivalis (growth inhibition): higher antimicrobial activity than mogroside III
A. actinomycetemcomitans
  antimicrobial activity against A. actinomycetemcomitans (growth inhibition): mogroside IV, V, VI, 11-o-Mogroside V showed higher antimicrobial activity than mogroside II and III
C. albicans; in vitro
  antimicrobial activity against C. albicans (growth inhibition): higher antimicrobial activity than mogroside VI and Siamenoside I

## rhamnocitrin-3-O-rhamnoside
P. gingivalis
  antimicrobial activity against P. gingivalis (growth inhibition): highest activity
C. albicans
  antimicrobial activity against C. albicans (growth inhibition): good activity

## siraitiflavandiol
P. gingivalis; 500 μM
  antimicrobial activity against P. gingivalis (growth inhibition): highest activity
C. albicans; in vitro
  antimicrobial activity against C. albicans (growth inhibition): good activity
